Results reported in patent US9549932B2, “2-(morpholin-4-yl)-1,7-naphthyridines” (BAYER PHARMA AKTIENGESELLSCHAFT, priority 2014, dated 2017).

molecular target: full-length human ATR protein (Homo sapiens (Human), UniProt Q13535); assay: Binding assay ATR (TR-FRET tracer displacement); settings: tracer A, TR-FRET; read-out: ATR binding (tracer A) IC50
In short: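 Full-length human GST-ATR co-purified with ATRIP, pre-complexed 30 min at 22 °C with anti-GST-Tb antibody, then pre-bound with compound 10 min. Tracer A or B added (2 µl of 100 nM solution), 30 min at 22 °C.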

full-length human ATR protein, sequence (Q13535 other isoform, or with tags, fused parts or gaps): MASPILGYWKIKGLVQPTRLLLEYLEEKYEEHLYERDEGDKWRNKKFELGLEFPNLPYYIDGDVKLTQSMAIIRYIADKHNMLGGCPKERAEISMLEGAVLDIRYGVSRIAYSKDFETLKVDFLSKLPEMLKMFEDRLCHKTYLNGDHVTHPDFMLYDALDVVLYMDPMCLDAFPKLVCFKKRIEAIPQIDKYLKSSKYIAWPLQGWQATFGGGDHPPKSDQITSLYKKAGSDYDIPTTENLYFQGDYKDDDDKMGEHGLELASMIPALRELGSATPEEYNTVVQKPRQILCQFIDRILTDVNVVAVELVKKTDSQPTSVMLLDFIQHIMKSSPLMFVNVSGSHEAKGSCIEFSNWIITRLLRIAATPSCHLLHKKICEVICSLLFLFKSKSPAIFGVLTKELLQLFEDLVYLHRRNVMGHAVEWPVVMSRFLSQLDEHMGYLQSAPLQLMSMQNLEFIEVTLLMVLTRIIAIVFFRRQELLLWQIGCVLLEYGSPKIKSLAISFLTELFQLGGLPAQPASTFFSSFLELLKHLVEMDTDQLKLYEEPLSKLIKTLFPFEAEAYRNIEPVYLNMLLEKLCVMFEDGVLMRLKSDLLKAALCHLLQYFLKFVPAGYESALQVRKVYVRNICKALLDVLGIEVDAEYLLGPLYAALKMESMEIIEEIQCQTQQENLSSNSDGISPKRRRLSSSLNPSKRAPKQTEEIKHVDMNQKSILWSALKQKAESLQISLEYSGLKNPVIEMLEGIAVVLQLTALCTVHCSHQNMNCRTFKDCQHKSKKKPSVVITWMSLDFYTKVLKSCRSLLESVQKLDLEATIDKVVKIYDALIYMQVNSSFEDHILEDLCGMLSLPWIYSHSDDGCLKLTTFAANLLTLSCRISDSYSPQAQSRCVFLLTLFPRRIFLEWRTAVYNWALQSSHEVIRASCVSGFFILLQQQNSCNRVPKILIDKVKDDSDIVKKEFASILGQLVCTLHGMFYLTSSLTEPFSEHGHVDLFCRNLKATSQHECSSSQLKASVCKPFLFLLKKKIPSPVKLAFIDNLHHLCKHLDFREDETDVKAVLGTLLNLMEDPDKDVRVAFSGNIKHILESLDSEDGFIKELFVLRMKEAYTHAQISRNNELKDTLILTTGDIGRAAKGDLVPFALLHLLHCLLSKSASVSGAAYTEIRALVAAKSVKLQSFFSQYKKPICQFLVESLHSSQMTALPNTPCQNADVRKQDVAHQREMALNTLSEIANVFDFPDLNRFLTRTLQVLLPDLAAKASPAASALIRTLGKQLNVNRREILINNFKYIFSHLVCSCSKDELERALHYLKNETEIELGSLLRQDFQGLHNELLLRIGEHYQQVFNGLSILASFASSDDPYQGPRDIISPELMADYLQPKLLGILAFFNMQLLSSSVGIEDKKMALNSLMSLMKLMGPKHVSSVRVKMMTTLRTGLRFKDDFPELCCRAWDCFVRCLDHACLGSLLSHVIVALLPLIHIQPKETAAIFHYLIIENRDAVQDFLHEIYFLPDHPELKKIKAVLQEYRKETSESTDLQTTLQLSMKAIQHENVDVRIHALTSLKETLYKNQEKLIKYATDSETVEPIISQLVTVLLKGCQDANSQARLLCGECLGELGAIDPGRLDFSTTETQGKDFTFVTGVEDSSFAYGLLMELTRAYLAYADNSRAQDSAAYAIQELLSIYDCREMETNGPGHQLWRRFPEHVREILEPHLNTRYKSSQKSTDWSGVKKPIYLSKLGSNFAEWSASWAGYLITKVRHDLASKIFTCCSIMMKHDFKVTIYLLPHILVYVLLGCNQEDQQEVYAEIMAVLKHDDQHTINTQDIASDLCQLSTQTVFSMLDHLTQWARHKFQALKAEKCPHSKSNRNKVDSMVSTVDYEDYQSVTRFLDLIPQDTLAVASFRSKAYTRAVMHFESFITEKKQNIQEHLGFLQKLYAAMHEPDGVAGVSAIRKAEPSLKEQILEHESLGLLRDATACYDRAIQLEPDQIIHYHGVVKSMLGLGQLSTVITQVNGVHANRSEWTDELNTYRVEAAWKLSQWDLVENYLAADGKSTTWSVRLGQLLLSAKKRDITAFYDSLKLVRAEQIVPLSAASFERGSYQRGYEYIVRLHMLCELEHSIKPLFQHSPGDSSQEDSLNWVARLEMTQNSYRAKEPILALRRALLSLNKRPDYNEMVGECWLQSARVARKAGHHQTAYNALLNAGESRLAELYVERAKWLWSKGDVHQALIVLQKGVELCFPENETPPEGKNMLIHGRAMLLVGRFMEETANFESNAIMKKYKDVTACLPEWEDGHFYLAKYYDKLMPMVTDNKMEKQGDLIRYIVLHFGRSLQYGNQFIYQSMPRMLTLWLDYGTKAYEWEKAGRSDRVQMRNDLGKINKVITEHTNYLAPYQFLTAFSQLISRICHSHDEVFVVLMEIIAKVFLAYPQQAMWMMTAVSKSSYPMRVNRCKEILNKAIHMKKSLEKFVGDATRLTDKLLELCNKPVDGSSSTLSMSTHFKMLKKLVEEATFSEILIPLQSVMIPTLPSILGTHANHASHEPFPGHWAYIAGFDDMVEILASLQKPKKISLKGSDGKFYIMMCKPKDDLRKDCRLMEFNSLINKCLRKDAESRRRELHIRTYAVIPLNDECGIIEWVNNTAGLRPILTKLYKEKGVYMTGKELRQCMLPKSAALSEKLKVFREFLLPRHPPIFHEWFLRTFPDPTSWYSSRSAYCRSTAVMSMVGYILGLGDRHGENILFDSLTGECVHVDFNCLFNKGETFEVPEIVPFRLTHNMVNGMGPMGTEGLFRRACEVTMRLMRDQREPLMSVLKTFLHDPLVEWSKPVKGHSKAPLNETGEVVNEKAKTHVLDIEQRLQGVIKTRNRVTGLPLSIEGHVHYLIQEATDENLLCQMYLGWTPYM
full-length human ATR protein, sequence (Q8WXE1 other isoform, or with tags, fused parts or gaps partner): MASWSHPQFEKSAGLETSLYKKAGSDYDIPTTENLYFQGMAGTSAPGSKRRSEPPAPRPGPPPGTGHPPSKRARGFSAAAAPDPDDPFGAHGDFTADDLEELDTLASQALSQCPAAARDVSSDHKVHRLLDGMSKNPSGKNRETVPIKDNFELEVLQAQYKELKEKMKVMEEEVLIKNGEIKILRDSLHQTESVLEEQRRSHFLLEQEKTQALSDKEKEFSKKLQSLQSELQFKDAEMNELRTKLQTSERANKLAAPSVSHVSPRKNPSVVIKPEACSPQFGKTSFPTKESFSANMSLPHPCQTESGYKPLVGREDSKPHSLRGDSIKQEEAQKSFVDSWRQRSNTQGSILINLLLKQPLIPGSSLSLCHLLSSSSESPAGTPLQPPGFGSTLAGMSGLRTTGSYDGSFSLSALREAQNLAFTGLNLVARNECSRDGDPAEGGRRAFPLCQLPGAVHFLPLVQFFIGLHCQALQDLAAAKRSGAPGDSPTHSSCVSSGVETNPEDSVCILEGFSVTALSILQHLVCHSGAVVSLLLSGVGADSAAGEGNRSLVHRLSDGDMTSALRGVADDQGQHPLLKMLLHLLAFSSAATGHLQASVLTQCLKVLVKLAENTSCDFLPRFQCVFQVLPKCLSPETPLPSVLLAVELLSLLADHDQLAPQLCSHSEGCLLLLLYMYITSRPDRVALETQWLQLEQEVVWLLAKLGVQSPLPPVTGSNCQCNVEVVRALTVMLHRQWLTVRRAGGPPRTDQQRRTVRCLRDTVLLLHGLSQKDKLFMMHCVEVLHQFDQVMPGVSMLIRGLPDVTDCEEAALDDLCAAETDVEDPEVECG

Going from `C[C@@H]1COCCN1c1cc(-c2ccn[nH]2)c2ccnc(-c3ccn[nH]3)c2n1` [Example 205, 2-[(3R)-3-methylmorpholin-4-yl]-4,8-di(1H-pyrazol-5-yl)-1,7-naphthyridine] to `Cc1ncccc1-c1cc(N2CCOC[C@H]2C)nc2c(-c3ccn[nH]3)nccc12` [Example 218, 2-[(3R)-3-methylmorpholin-4-yl]-4-(2-methylpyridin-3-yl)-8-(1H-pyrazol-5-yl)-1,7-naphthyridine], the IC50 falls from 49.3 nM to 11.8 nM (4.2-fold). The second is the more potent here.

First: CN(C)c1cc(N2CCOCC2)nc2c(-c3ccn[nH]3)nccc12 [Example 206, N,N-dimethyl-2-(morpholin-4-yl)-8-(1H-pyrazol-5-yl)-1,7-naphthyridin-4-amine]
Second: CC(C)Nc1cc(N2CCOCC2)nc2c(-c3ccn[nH]3)nccc12 [Example 208, 2-(morpholin-4-yl)-N-(propan-2-yl)-8-(1H-pyrazol-5-yl)-1,7-naphthyridin-4-amine]
The IC50 of the first is 2.9-fold lower: 404 nM for the first, 1160 nM for the second.

First: c1ccc(Sc2cc(N3CCOCC3)nc3c(-c4ccn[nH]4)nccc23)cc1 [Example 207, 2-(morpholin-4-yl)-4-(phenylsulfanyl)-8-(1H-pyrazol-5-yl)-1,7-naphthyridine]
Second: COc1ccc(Sc2cc(N3CCOCC3)nc3c(-c4ccn[nH]4)nccc23)cc1 [Example 213]
The IC50 of the first is 10-fold higher: 542 nM for the first, 53.5 nM for the second.

Going from `CCSc1cc(N2CCOCC2)nc2c(-c3ccn[nH]3)nccc12` [Example 209, 4-(ethylsulfanyl)-2-(morpholin-4-yl)-8-(1H-pyrazol-5-yl)-1,7-naphthyridine] to `CC(C)Sc1cc(N2CCOCC2)nc2c(-c3ccn[nH]3)nccc12` [Example 210, 2-(morpholin-4-yl)-4-(propan-2-ylsulfanyl)-8-(1H-pyrazol-5-yl)-1,7-naphthyridine], the IC50 falls from 385 nM to 231 nM (1.7-fold). The second is the more potent here.

Going from `c1c[nH]c(-c2cc(N3CCOCC3)nc3c(-c4ccn[nH]4)nccc23)c1` [Example 211, 2-(morpholin-4-yl)-8-(1H-pyrazol-5-yl)-4-(1H-pyrrol-2-yl)-1,7-naphthyridine] to `c1cc(-c2nccc3c(-c4cc[nH]c4)cc(N4CCOCC4)nc23)[nH]n1` [Example 212, 2-(morpholin-4-yl)-8-(1H-pyrazol-5-yl)-4-(1H-pyrrol-3-yl)-1,7-naphthyridine], the IC50 rises from 547 nM to greater than 20000 nM.

Going from `Cc1cc(-c2cc(N3CCOCC3)nc3c(-c4ccn[nH]4)nccc23)n[nH]1` [Example 214, 4-(5-methyl-1H-pyrazol-3-yl)-2-(morpholin-4-yl)-8-(1H-pyrazol-5-yl)-1,7-naphthyridine] to `Cc1cc(-c2cc(N3CCOCC3)nc3c(-c4ccn[nH]4)nccc23)cnc1F` [Example 224, 4-(6-fluoro-5-methylpyridin-3-yl)-2-(morpholin-4-yl)-8-(1H-pyrazol-5-yl)-1,7-naphthyridine], the IC50 falls from 176 nM to 52.1 nM (3.4-fold). The second is the more potent here.

Compared with `O=C1CCCN1c1cc(N2CCOCC2)nc2c(-c3ccn[nH]3)nccc12` [Example 215, 1-[2-(morpholin-4-yl)-8-(1H-pyrazol-5-yl)-1,7-naphthyridin-4-yl]pyrrolidin-2-one], `O=C1CCCCN1c1cc(N2CCOCC2)nc2c(-c3ccn[nH]3)nccc12` [Example 217, 1-[2-(morpholin-4-yl)-8-(1H-pyrazol-5-yl)-1,7-naphthyridin-4-yl]piperidin-2-one] is 2.5-fold higher in IC50: 317 nM for the first, 802 nM for the second.

First: CC(C)Oc1ncccc1-c1cc(N2CCOC[C@H]2C)nc2c(-c3ccn[nH]3)nccc12 [Example 219, 2-[(3R)-3-methylmorpholin-4-yl]-4-[2-(propan-2-yloxy)pyridin-3-yl]-8-(1H-pyrazol-5-yl)-1,7-naphthyridine]
Second: COc1ncccc1-c1cc(N2CCOC[C@H]2C)nc2c(-c3ccn[nH]3)nccc12 [Example 220, 4-(2-methoxypyridin-3-yl)-2-[(3R)-3-methylmorpholin-4-yl]-8-(1H-pyrazol-5-yl)-1,7-naphthyridine]
The IC50 of the first is 4.1-fold higher: 132 nM for the first, 32.4 nM for the second.

First: c1cc(-c2cc(N3CCOCC3)nc3c(-c4ccn[nH]4)nccc23)ccn1 [Example 221, 2-(morpholin-4-yl)-8-(1H-pyrazol-5-yl)-4-(pyridin-4-yl)-1,7-naphthyridine]
Second: C[C@@H]1COCCN1c1cc(-c2ccncc2F)c2ccnc(-c3ccn[nH]3)c2n1 [Example 230, 4-(3-fluoropyridin-4-yl)-2-[(3R)-3-methylmorpholin-4-yl]-8-(1H-pyrazol-5-yl)-1,7-naphthyridine]
The IC50 of the first is 6.2-fold higher: 196 nM for the first, 31.7 nM for the second.

First: COc1ccc(Sc2cc(N3CCOC[C@H]3C)nc3c(-c4ccn[nH]4)nccc23)cc1 [Example 222]
Second: COc1ccsc1-c1cc(N2CCOC[C@H]2C)nc2c(-c3ccn[nH]3)nccc12 [Example 235, 4-(3-methoxythiophen-2-yl)-2-[(3R)-3-methylmorpholin-4-yl]-8-(1H-pyrazol-5-yl)-1,7-naphthyridine]
The IC50 of the first is 2.4-fold higher: 50.2 nM for the first, 21.3 nM for the second. The second is the more potent here.

Compared with `C[C@@H]1COCCN1c1cc(-c2ccnc(N3CCOCC3)c2F)c2ccnc(-c3ccn[nH]3)c2n1` [Example 223, 4-[3-fluoro-2-(morpholin-4-yl)pyridin-4-yl]-2-[(3R)-3-methylmorpholin-4-yl]-8-(1H-pyrazol-5-yl)-1,7-naphthyridine], `C[C@@H]1COCCN1c1cc(-c2ccc(F)nc2F)c2ccnc(-c3ccn[nH]3)c2n1` [Example 228, 4-(2,6-difluoropyridin-3-yl)-2-[(3R)-3-methylmorpholin-4-yl]-8-(1H-pyrazol-5-yl)-1,7-naphthyridine] is 4.1-fold lower in IC50: 124 nM for the first, 30.1 nM for the second. The second is the more potent here.

Compared with `O=C1OCCCN1c1cc(N2CCOCC2)nc2c(-c3ccn[nH]3)nccc12` [Example 225, 3-[2-(morpholin-4-yl)-8-(1H-pyrazol-5-yl)-1,7-naphthyridin-4-yl]-1,3-oxazinan-2-one], `O=C1OCCN1c1cc(N2CCOCC2)nc2c(-c3ccn[nH]3)nccc12` [Example 226, 3-[2-(morpholin-4-yl)-8-(1H-pyrazol-5-yl)-1,7-naphthyridin-4-yl]-1,3-oxazolidin-2-one] is 2.6-fold higher in IC50: 447 nM for the first, 1140 nM for the second. The first is the more potent here.

First: COc1cnccc1-c1cc(N2CCOC[C@H]2C)nc2c(-c3ccn[nH]3)nccc12 [Example 227, 4-(3-methoxypyridin-4-yl)-2-[(3R)-3-methylmorpholin-4-yl]-8-(1H-pyrazol-5-yl)-1,7-naphthyridine]
Second: C[C@@H]1COCCN1c1cc(-c2ccsc2Cl)c2ccnc(-c3ccn[nH]3)c2n1 [Example 236, 4-(2-chlorothiophen-3-yl)-2-[(3R)-3-methylmorpholin-4-yl]-8-(1H-pyrazol-5-yl)-1,7-naphthyridine]
The IC50 of the first is 2.7-fold higher: 75.5 nM for the first, 28.2 nM for the second. The second is the more potent here.

`C[C@@H]1COCCN1c1cc(-c2cc(Cl)cnc2F)c2ccnc(-c3ccn[nH]3)c2n1` [Example 229, 4-(5-chloro-2-fluoropyridin-3-yl)-2-[(3R)-3-methylmorpholin-4-yl]-8-(1H-pyrazol-5-yl)-1,7-naphthyridine] and `Cc1ncc(-c2cc(N3CCOC[C@H]3C)nc3c(-c4ccn[nH]4)nccc23)cc1F` [Example 233, 4-(5-fluoro-6-methylpyridin-3-yl)-2-[(3R)-3-methylmorpholin-4-yl]-8-(1H-pyrazol-5-yl)-1,7-naphthyridine] are within 1.5-fold of each other in IC50: 28.4 nM for the first, 42 nM for the second.

`Cc1cc(-c2cc(N3CCOC[C@H]3C)nc3c(-c4ccn[nH]4)nccc23)cnc1C` [Example 232, 4-(5,6-dimethylpyridin-3-yl)-2-[(3R)-3-methylmorpholin-4-yl]-8-(1H-pyrazol-5-yl)-1,7-naphthyridine] and `Cc1cc(-c2cc(N3CCOC[C@H]3C)nc3c(-c4ccn[nH]4)nccc23)c(C)s1` [Example 240, 4-(2,5-dimethylthiophen-3-yl)-2-[(3R)-3-methylmorpholin-4-yl]-8-(1H-pyrazol-5-yl)-1,7-naphthyridine] are within 1.5-fold of each other in IC50: 39.1 nM for the first, 30 nM for the second.

`Cc1cc(-c2cc(N3CCOC[C@H]3C)nc3c(-c4ccn[nH]4)nccc23)cs1` [Example 234, 2-[(3R)-3-methylmorpholin-4-yl]-4-(5-methylthiophen-3-yl)-8-(1H-pyrazol-5-yl)-1,7-naphthyridine] and `Cc1csc(-c2cc(N3CCOC[C@H]3C)nc3c(-c4ccn[nH]4)nccc23)c1` [Example 239, 2-[(3R)-3-methylmorpholin-4-yl]-4-(4-methylthiophen-2-yl)-8-(1H-pyrazol-5-yl)-1,7-naphthyridine] are within 1.5-fold of each other in IC50: 29.2 nM for the first, 20.3 nM for the second.

First: C[C@@H]1COCCN1c1cc(-c2cncc3ccccc23)c2ccnc(-c3ccn[nH]3)c2n1 [Example 237, 4-(isoquinolin-4-yl)-2-[(3R)-3-methylmorpholin-4-yl]-8-(1H-pyrazol-5-yl)-1,7-naphthyridine]
Second: C[C@@H]1COCCN1c1cc(-c2ccc(Cl)s2)c2ccnc(-c3ccn[nH]3)c2n1 [Example 238, 4-(5-chlorothiophen-2-yl)-2-[(3R)-3-methylmorpholin-4-yl]-8-(1H-pyrazol-5-yl)-1,7-naphthyridine]
The IC50 of the first is 1.9-fold lower: 18.2 nM for the first, 34.5 nM for the second.

First: C[C@@H]1COCCN1c1cc(C2CCSCC2)c2ccnc(-c3ccn[nH]3)c2n1 [Example 241, 2-[(3R)-3-methylmorpholin-4-yl]-8-(1H-pyrazol-5-yl)-4-(tetrahydro-2H-thiopyran-4-yl)-1,7-naphthyridine]
Second: C[C@@H]1COCCN1c1cc(C2CCCN(C)C2)c2ccnc(-c3ccn[nH]3)c2n1 (stereo partly drawn) [Example 244, 2-[(3R)-3-methylmorpholin-4-yl]-4-[1-methylpiperidin-3-yl]-8-(1H-pyrazol-5-yl)-1,7-naphthyridine]
The IC50 of the first is 39-fold lower: 4.06 nM for the first, 159 nM for the second. The first is the more potent here.

Going from `C[C@@H]1COCCN1c1cc(C2=CCCN(C)C2)c2ccnc(-c3ccn[nH]3)c2n1` [Example 242, 2-[(3R)-3-methylmorpholin-4-yl]-4-(1-methyl-1,2,5,6-tetrahydropyridin-3-yl)-8-(1H-pyrazol-5-yl)-1,7-naphthyridine] to `C[C@@H]1COCCN1c1cc(C2=CCN(C)CC2)c2ccnc(-c3ccn[nH]3)c2n1` [Example 243, 2-[(3R)-3-methylmorpholin-4-yl]-4-(1-methyl-1,2,3,6-tetrahydropyridin-4-yl)-8-(1H-pyrazol-5-yl)-1,7-naphthyridine], the IC50 falls from 95.9 nM to 36.5 nM (2.6-fold).

`C[C@@H]1COCCN1c1cc(C2=CCNCC2)c2ccnc(-c3ccn[nH]3)c2n1` [Example 245, 2-[(3R)-3-methylmorpholin-4-yl]-8-(1H-pyrazol-5-yl)-4-(1,2,3,6-tetrahydropyridin-4-yl)-1,7-naphthyridine] gave an IC50 of 32 nM.
